Legend:
Assay type in all cases: in vivo
[1] = test system: barnyardgrass (Echinochloa crus-galli); assay: Test G Post-Emergence Protocol; settings: Echinochloa crus-galli, post-emergence, 312 h, read-out: Barnyardgrass damage rating; for pest or weed control at 15.625 g/ha: 15.625 g ai/ha, evaluated after 13 days (100=total damage to plant; 0=no damage to plant); for pest or weed control at 62.5 g/ha: 62.5 g ai/ha; for pest or weed control at 62.5 g/ha / pest or weed control at 250 g/ha: evaluated after 13 days, 100=total damage to plant, 0=no damage to plant; for pest or weed control at 250 g/ha: 250 g ai/ha
Procedure, shortened: (§1)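 Sow in soil; grow 8 d (24/16 °C, 14 h light, 65% humidity); spray 15.625/62.5/250 g/ha in acetone:water 50:50 + 0.5% Tween 20; grow on, water twice daily; score damage 0–100 at 13 d.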

[2] = test system: giant foxtail (Setaria faberi); assay: Test G Post-Emergence Protocol; settings: Setaria faberi, post-emergence, 312 h, read-out: Foxtail, Giant damage rating; for pest or weed control at 15.625 g/ha: 15.625 g ai/ha, evaluated after 13 days (100=total damage to plant; 0=no damage to plant); for pest or weed control at 62.5 g/ha: 62.5 g ai/ha; for pest or weed control at 62.5 g/ha / pest or weed control at 250 g/ha: evaluated after 13 days, 100=total damage to plant, 0=no damage to plant; for pest or weed control at 250 g/ha: 250 g ai/ha
Procedure, shortened: as §1

[3] = test system: ivy-leaved morning glory (Ipomoea hederacea); assay: Test G Post-Emergence Protocol; settings: Ipomoea, post-emergence, 312 h, read-out: Morningglory, Ivy-leaved damage rating; for pest or weed control at 15.625 g/ha: 15.625 g ai/ha, evaluated after 13 days (100=total damage to plant; 0=no damage to plant); for pest or weed control at 62.5 g/ha: 62.5 g ai/ha; for pest or weed control at 62.5 g/ha / pest or weed control at 250 g/ha: evaluated after 13 days, 100=total damage to plant, 0=no damage to plant; for pest or weed control at 250 g/ha: 250 g ai/ha
Procedure, shortened: as §1

[4] = test system: velvetleaf (Abutilon theophrasti); assay: Test G Post-Emergence Protocol; settings: Abutilon theophrasti, post-emergence, 312 h, read-out: Velvetleaf damage rating; for pest or weed control at 15.625 g/ha: 15.625 g ai/ha, evaluated after 13 days (100=total damage to plant; 0=no damage to plant); for pest or weed control at 62.5 g/ha: 62.5 g ai/ha; for pest or weed control at 62.5 g/ha / pest or weed control at 250 g/ha: evaluated after 13 days, 100=total damage to plant, 0=no damage to plant; for pest or weed control at 250 g/ha: 250 g ai/ha
Procedure, shortened: as §1

corn (Zea mays) [5] = assay: Test G Post-Emergence Protocol; settings: Zea mays, post-emergence, 312 h, read-out: Corn damage rating; for plant injury at 15.625 g/ha: 15.625 g ai/ha, evaluated after 13 days (100=total damage to plant; 0=no damage to plant); for plant injury at 62.5 g/ha: 62.5 g ai/ha; for plant injury at 62.5 g/ha / plant injury at 250 g/ha: evaluated after 13 days, 100=total damage to plant, 0=no damage to plant; for plant injury at 250 g/ha: 250 g ai/ha
Procedure, shortened: as §1

[6] = test system: redroot pigweed (Amaranthus retroflexus); assay: Test G Post-Emergence Protocol; settings: Amaranthus retroflexus, post-emergence, 312 h, read-out: Pigweed, Redroot damage rating; for pest or weed control at 15.625 g/ha: 15.625 g ai/ha, evaluated after 13 days (100=total damage to plant; 0=no damage to plant); for pest or weed control at 62.5 g/ha: 62.5 g ai/ha; for pest or weed control at 62.5 g/ha / pest or weed control at 250 g/ha: evaluated after 13 days, 100=total damage to plant, 0=no damage to plant; for pest or weed control at 250 g/ha: 250 g ai/ha
Procedure, shortened: as §1

[7] = test system: barnyardgrass (Echinochloa crus-galli); assay: Test G Pre-Emergence Protocol; settings: Echinochloa crus-galli, pre-emergence, 312 h, evaluated after 13 days; for pest or weed control at 15.625 g/ha: 15.625 g ai/ha; for pest or weed control at 15.625 g/ha / pest or weed control at 250 g/ha: read-out: Barnyardgrass damage rating (100=total damage to plant; 0=no damage to plant); for pest or weed control at 62.5 g/ha: 62.5 g ai/ha, 100=total damage to plant, 0=no damage to plant, read-out: Barnyardgrass damage rating; for pest or weed control at 250 g/ha: 250 g ai/ha
Procedure, shortened: (§2)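 Spraying took place one day after sowing, at 15.625, 62.5 or 250 g/ha, using an acetone/water (50:50) spray solution containing 0.5% Tween 20. Plants were kept under glasshouse conditions (24/16 °C, 14 h light, 65% humidity, watered twice daily), and injury was rated 0–100 at day 13.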

[8] = test system: giant foxtail (Setaria faberi); assay: Test G Pre-Emergence Protocol; settings: Setaria faberi, pre-emergence, 312 h, evaluated after 13 days; for pest or weed control at 15.625 g/ha: 15.625 g ai/ha; for pest or weed control at 15.625 g/ha / pest or weed control at 250 g/ha: read-out: Foxtail, Giant damage rating (100=total damage to plant; 0=no damage to plant); for pest or weed control at 62.5 g/ha: 62.5 g ai/ha, 100=total damage to plant, 0=no damage to plant, read-out: Foxtail, Giant damage rating; for pest or weed control at 250 g/ha: 250 g ai/ha
Procedure, shortened: as §2

[9] = test system: ivy-leaved morning glory (Ipomoea hederacea); assay: Test G Pre-Emergence Protocol; settings: Ipomoea, pre-emergence, 312 h, evaluated after 13 days; for pest or weed control at 15.625 g/ha: 15.625 g ai/ha; for pest or weed control at 15.625 g/ha / pest or weed control at 250 g/ha: read-out: Morningglory, Ivy-leaved damage rating (100=total damage to plant; 0=no damage to plant); for pest or weed control at 62.5 g/ha: 62.5 g ai/ha, 100=total damage to plant, 0=no damage to plant, read-out: Morningglory, Ivy-leaved damage rating; for pest or weed control at 250 g/ha: 250 g ai/ha
Procedure, shortened: as §2

[10] = test system: velvetleaf (Abutilon theophrasti); assay: Test G Pre-Emergence Protocol; settings: Abutilon theophrasti, pre-emergence, 312 h, evaluated after 13 days; for pest or weed control at 15.625 g/ha: 15.625 g ai/ha; for pest or weed control at 15.625 g/ha / pest or weed control at 250 g/ha: read-out: Velvetleaf damage rating (100=total damage to plant; 0=no damage to plant); for pest or weed control at 62.5 g/ha: 62.5 g ai/ha, 100=total damage to plant, 0=no damage to plant, read-out: Velvetleaf damage rating; for pest or weed control at 250 g/ha: 250 g ai/ha
Procedure, shortened: as §2

corn (Zea mays) [11] = assay: Test G Pre-Emergence Protocol; settings: Zea mays, pre-emergence, 312 h, evaluated after 13 days; for plant injury at 15.625 g/ha: 15.625 g ai/ha; for plant injury at 15.625 g/ha / plant injury at 250 g/ha: read-out: Corn damage rating (100=total damage to plant; 0=no damage to plant); for plant injury at 62.5 g/ha: 62.5 g ai/ha, 100=total damage to plant, 0=no damage to plant, read-out: Corn damage rating; for plant injury at 250 g/ha: 250 g ai/ha
Procedure, shortened: as §2

[12] = test system: redroot pigweed (Amaranthus retroflexus); assay: Test G Pre-Emergence Protocol; settings: Amaranthus retroflexus, pre-emergence, 312 h, evaluated after 13 days; for pest or weed control at 15.625 g/ha: 15.625 g ai/ha; for pest or weed control at 15.625 g/ha / pest or weed control at 250 g/ha: read-out: Pigweed, Redroot damage rating (100=total damage to plant; 0=no damage to plant); for pest or weed control at 62.5 g/ha: 62.5 g ai/ha, 100=total damage to plant, 0=no damage to plant, read-out: Pigweed, Redroot damage rating; for pest or weed control at 250 g/ha: 250 g ai/ha
Procedure, shortened: as §2

SMILES	pest or weed control at 15.625 g/ha [1]	pest or weed control at 62.5 g/ha [1]	pest or weed control at 250 g/ha [1]	pest or weed control at 15.625 g/ha [2]	pest or weed control at 62.5 g/ha [2]	pest or weed control at 250 g/ha [2]	pest or weed control at 15.625 g/ha [3]	pest or weed control at 62.5 g/ha [3]	pest or weed control at 250 g/ha [3]	pest or weed control at 15.625 g/ha [4]	pest or weed control at 62.5 g/ha [4]	pest or weed control at 250 g/ha [4]	plant injury at 15.625 g/ha (corn (Zea mays) [5])	plant injury at 62.5 g/ha (corn (Zea mays) [5])	plant injury at 250 g/ha (corn (Zea mays) [5])	pest or weed control at 15.625 g/ha [6]	pest or weed control at 62.5 g/ha [6]	pest or weed control at 250 g/ha [6]	pest or weed control at 15.625 g/ha [7]	pest or weed control at 62.5 g/ha [7]	other results
CN1C[C@@H](c2cccc(Oc3ccc(F)cc3)c2)[C@H](C(=O)Nc2cccc(F)n2)C1=O (racemic) [Compound 1829]	0%	60%	70%	70%	80%	80%	20%	20%	30%	0%	0%	20%	20%	0%	60%	0%	20%	60%	60%	70%	pest or weed control at 250 g/ha [7]: 90%; pest or weed control at 15.625 g/ha [8]: 70%; pest or weed control at 62.5 g/ha [8]: 80%; pest or weed control at 250 g/ha [8]: 90%; pest or weed control at 15.625 g/ha [9]: 0%; pest or weed control at 62.5 g/ha [9]: 0%; pest or weed control at 250 g/ha [9]: 0%; pest or weed control at 15.625 g/ha [10]: 0%; pest or weed control at 62.5 g/ha [10]: 0%; pest or weed control at 250 g/ha [10]: 20%; plant injury at 15.625 g/ha (corn (Zea mays) [11]): 0%; plant injury at 62.5 g/ha (corn (Zea mays) [11]): 10%; plant injury at 250 g/ha (corn (Zea mays) [11]): 60%; pest or weed control at 15.625 g/ha [12]: 0%; pest or weed control at 62.5 g/ha [12]: 0%; pest or weed control at 250 g/ha [12]: 30%
CCCOc1cc(OC(F)(F)F)cc(C2CN(C)C(=O)C2C(=O)Nc2cccc(F)c2F)c1 (stereo not drawn) [Compound 1693]	0%	30%	80%	0%	60%	80%	0%	50%	60%	0%	30%	20%	0%	10%	70%	20%	50%	60%	0%	70%	pest or weed control at 250 g/ha [7]: 70%; pest or weed control at 15.625 g/ha [8]: 0%; pest or weed control at 62.5 g/ha [8]: 50%; pest or weed control at 250 g/ha [8]: 70%; pest or weed control at 15.625 g/ha [9]: 0%; pest or weed control at 62.5 g/ha [9]: 20%; pest or weed control at 250 g/ha [9]: 20%; pest or weed control at 15.625 g/ha [10]: 0%; pest or weed control at 62.5 g/ha [10]: 0%; pest or weed control at 250 g/ha [10]: 10%; plant injury at 15.625 g/ha (corn (Zea mays) [11]): 0%; plant injury at 62.5 g/ha (corn (Zea mays) [11]): 30%; plant injury at 250 g/ha (corn (Zea mays) [11]): 40%; pest or weed control at 15.625 g/ha [12]: 0%; pest or weed control at 62.5 g/ha [12]: 0%; pest or weed control at 250 g/ha [12]: 10%
